According to ChEMBL document CHEMBL4359820, “Enrichment of novel quinazoline derivatives with high antitumor activity in mitochondria tracked by its self-fluorescence” (Eur J Med Chem, 2019):
Activity calls are given as the source filed them. The calls are words filed in the database; no cut-off is given here.

Experiments:
[1] = biological target: Epidermal growth factor receptor (Homo sapiens) (UniProt P00533); conditions: HEK293, at 50 nM
Description: Inhibition of human recombinant His-tagged wild type EGFR expressed in HEK293 cells at 50 nM using poly[Glu:Tyr] (4:1) as substrate incubated for 60 mins by ELISA relative to control

[2] = Drug localization in lysosome of human A549 cells at 5 uM incubated for 30 mins by Lysotracker red staining based confocal microscopic method; type: ADME, subcellular; conditions: a549, 0.5 h
[3] = Drug uptake in human A549 cells at 5 uM incubated for 2 hrs by fluorescence microscopic method; type: ADME, cell-based; conditions: a549, 2 h
[4] = biological target: Epidermal growth factor receptor (Homo sapiens) (UniProt P00533); experiment: Inhibition of EGF-induced EGFR phosphorylation at Y1068 in human A431 cells at 0.2 to 5 uM preincubated for 2 hrs followed by EGF treatment and measured after 10 mins by Western blot analysis; type: cell-based
[5] = Drug localization in mitochondria of human A549 cells at 5 uM incubated for 30 mins by Mitotracker red staining based confocal microscopic method; type: ADME; conditions: a549, 0.5 h
[6] = Drug uptake in human A549 cells incubated for 2 hrs by FACS analysis; type: ADME, cell-based; conditions: a549, 2 h
[7] = biological target: Epidermal growth factor receptor (Homo sapiens) (UniProt P00533); experiment: Inhibition of EGF-induced EGFR phosphorylation at Tyr-residue in human A431 cells at 0.2 to 5 uM preincubated for 2 hrs followed by EGF treatment and measured after 10 mins by Western blot analysis; type: cell-based
[8] = Drug uptake in human A549 cells at 5 uM incubated for 2 hrs by FACS analysis (reference value: 0%); type: ADME, cell-based; conditions: a549, 2 h
[9] = biological target: Epidermal growth factor receptor (Homo sapiens) (UniProt P00533); experiment: Inhibition of EGF-induced EGFR phosphorylation at Y992 in human A431 cells at 0.2 to 5 uM preincubated for 2 hrs followed by EGF treatment and measured after 10 mins by Western blot analysis; type: cell-based
[10] = Drug uptake in human A549 cells at 1 uM incubated for 2 hrs by FACS analysis (reference value: 0%); type: ADME, cell-based; conditions: a549, 2 h
[11] = Drug uptake in human A549 cells at 25 uM incubated for 2 hrs by FACS analysis (reference value: 0%); type: ADME, cell-based; conditions: a549, 2 h
[12] = biological target: Epidermal growth factor receptor (Homo sapiens) (UniProt P00533); experiment: Inhibition of EGF-induced EGFR phosphorylation at Tyr-residue in human A549 cells at 0.4 to 10 uM preincubated for 2 hrs followed by EGF treatment and measured after 10 mins by Western blot analysis; type: cell-based
[13] = biological target: Epidermal growth factor receptor (Homo sapiens) (UniProt P00533); experiment: Inhibition of EGF-induced EGFR phosphorylation at Y992 in human A549 cells at 0.4 to 10 uM preincubated for 2 hrs followed by EGF treatment and measured after 10 mins by Western blot analysis; type: cell-based
[14] = Drug localization in mitochondria of human A549 cells at 5 uM incubated for 30 mins by Mitotracker green staining based confocal microscopic method; type: ADME; conditions: a549, 0.5 h
[15] = biological target: Epidermal growth factor receptor (Homo sapiens) (UniProt P00533); experiment: Inhibition of EGF-induced EGFR phosphorylation at Y1068 in human A549 cells at 0.4 to 10 uM preincubated for 2 hrs followed by EGF treatment and measured after 10 mins by Western blot analysis; type: cell-based
HCC827 = type: functional, cell-based; conditions: Homo sapiens, HCC827, 72 h
A549 [16] = type: functional, cell-based; conditions: Homo sapiens, A549, 72 h
A549 [17] = experiment: Inhibition of cell migration in CM-dil-labelled human A549 cells xenografted in 48 hrs post-fertilization zebrafish embryos at 15 uM incubated for 48 hrs by confocal microscopic method; type: functional, cell-based
A549 [18] = experiment: Induction of cell cycle arrest in human A549 cells assessed as accumulation at G2/M phase at 15 uM incubated for 48 hrs by PI staining based flow cytometric analysis (reference value: 14.36%); type: functional
A549 [19] = experiment: Induction of cell cycle arrest in human A549 cells assessed as accumulation at G0/G1 phase at 15 uM incubated for 48 hrs by PI staining based flow cytometric analysis (reference value: 51.73%); type: functional
A549 [20] = experiment: Induction of cell cycle arrest in human A549 cells assessed as accumulation at S phase at 15 uM incubated for 48 hrs by PI staining based flow cytometric analysis (reference value: 33.67%); type: functional
SW480 = type: functional, cell-based; conditions: Homo sapiens, SW480, 72 h
A-431 = experiment: cells; conditions: Homo sapiens, A-431, 72 h
Description: Antiproliferative activity against human A431 cells incubated for 72 hrs by MTT assay

NCI-H1975 = type: functional, cell-based; conditions: Homo sapiens, NCI-H1975, 72 h
A549 [21] = experiment: Induction of apoptosis in human A549 cells assessed as early apoptotic cells at 20 uM incubated for 48 hrs by annexin V -FITC and PI staining based flow cytometric analysis (reference value: 2.93%); type: functional
A549 [22] = experiment: Induction of cell cycle arrest in human A549 cells assessed as accumulation at G2/M phase at 20 uM incubated for 48 hrs by PI staining based flow cytometric analysis (reference value: 14.36%); type: functional
A549 [23] = experiment: Induction of apoptosis in human A549 cells assessed as late apoptotic cells at 20 uM incubated for 48 hrs by annexin V -FITC and PI staining based flow cytometric analysis (reference value: 2.24%); type: functional
A549 [24] = experiment: Induction of apoptosis in human A549 cells assessed as necrotic cells at 20 uM incubated for 48 hrs by annexin V -FITC and PI staining based flow cytometric analysis (reference value: 0.27%); type: functional
A549 [25] = experiment: Induction of cell cycle arrest in human A549 cells assessed as accumulation at G0/G1 phase at 20 uM incubated for 48 hrs by PI staining based flow cytometric analysis (reference value: 51.73%); type: functional
A549 [26] = experiment: Induction of apoptosis in human A549 cells assessed as viable cells at 20 uM incubated for 48 hrs by annexin V -FITC and PI staining based flow cytometric analysis (reference value: 94.56%); type: functional; conditions: A549, 48 h, read-out: Activity
A549 [27] = experiment: Induction of cell cycle arrest in human A549 cells assessed as accumulation at S phase at 20 uM incubated for 48 hrs by PI staining based flow cytometric analysis (reference value: 33.67%); type: functional

Sequence of Epidermal growth factor receptor (Homo sapiens) (P00533 whole entry): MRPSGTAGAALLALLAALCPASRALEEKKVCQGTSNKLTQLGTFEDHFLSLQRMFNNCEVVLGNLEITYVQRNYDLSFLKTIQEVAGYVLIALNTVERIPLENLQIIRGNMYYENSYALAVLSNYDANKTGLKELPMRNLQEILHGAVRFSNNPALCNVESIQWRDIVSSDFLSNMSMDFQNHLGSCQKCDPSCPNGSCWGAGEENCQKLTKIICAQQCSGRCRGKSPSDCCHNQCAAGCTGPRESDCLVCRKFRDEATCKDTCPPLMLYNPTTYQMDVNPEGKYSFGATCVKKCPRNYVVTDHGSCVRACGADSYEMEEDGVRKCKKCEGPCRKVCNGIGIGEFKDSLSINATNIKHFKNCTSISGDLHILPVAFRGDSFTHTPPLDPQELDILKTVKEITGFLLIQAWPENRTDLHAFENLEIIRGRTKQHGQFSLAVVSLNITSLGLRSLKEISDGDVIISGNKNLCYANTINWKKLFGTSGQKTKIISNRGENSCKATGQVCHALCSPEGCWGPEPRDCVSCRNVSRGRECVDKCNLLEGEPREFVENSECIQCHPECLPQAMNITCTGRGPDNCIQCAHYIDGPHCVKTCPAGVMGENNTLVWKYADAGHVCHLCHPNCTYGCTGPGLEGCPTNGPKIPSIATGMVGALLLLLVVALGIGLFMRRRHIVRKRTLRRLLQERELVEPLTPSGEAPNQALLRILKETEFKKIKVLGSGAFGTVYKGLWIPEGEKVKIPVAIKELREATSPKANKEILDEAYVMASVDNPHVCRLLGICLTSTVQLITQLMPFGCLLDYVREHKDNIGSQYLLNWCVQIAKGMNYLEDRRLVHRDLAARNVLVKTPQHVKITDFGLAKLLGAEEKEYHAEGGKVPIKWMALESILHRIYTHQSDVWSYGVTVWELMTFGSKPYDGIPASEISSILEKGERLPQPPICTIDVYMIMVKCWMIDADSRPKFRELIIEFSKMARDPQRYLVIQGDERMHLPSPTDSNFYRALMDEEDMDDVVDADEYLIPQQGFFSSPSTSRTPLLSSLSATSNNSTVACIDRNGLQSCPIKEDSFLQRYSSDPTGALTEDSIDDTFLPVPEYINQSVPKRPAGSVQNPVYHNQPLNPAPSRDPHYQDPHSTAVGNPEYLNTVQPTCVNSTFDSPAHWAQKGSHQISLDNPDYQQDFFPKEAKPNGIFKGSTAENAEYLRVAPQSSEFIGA

inhibition [1] | IC50 (A549 [16]) | IC50 (SW480) | IC50 (A-431) | IC50 (NCI-H1975) | SMILES | further results
< 20% |  |  |  |  | CCN(CC)CCN1CCN(c2cc3ncnc(Nc4ccc(F)c(Cl)c4)c3cc2F)CC1 | 
< 20% |  |  |  |  | C/C=C/c1ccc(Nc2ncnc3cc(N4CCN(CCN(CC)CC)CC4)c(F)cc23)cc1 | 
< 20% |  |  |  |  | Fc1cccc(COc2ccc(Nc3ncnc4cc(N5CCNCC5)c(F)cc34)cc2Cl)c1 | Drug uptake [2]: Active; Drug uptake [3]: Active; inhibition [4]: inactive; Drug uptake [5]: Active; Drug uptake [6]: Dose-dependent effect; inhibition [7]: inactive; Drug uptake [8]: 99.95%; inhibition [9]: inactive; Drug uptake [10]: 74.03%; Drug uptake [11]: 100%; inhibition [12]: inactive; inhibition [13]: inactive; Drug uptake [14]: Active; inhibition [15]: inactive
 | 14.9 µM |  |  |  | CS(=O)(=O)CCNCc1ccc(-c2ccc3ncnc(Nc4ccc(OCc5cccc(F)c5)c(Cl)c4)c3c2)o1 [LAPATINIB] | IC50 (HCC827): 0.6 µM; inhibition (A549 [17]): Active; Activity (A549 [18]): 7.66%; Activity (A549 [19]): 69.72%; Activity (A549 [20]): 22.35%
 | 14.4 µM | 16.4 µM | 12.6 µM | 49.8 µM | COCCN1CCN(c2cc3ncnc(Nc4ccc(F)c(Cl)c4)c3cc2F)CC1 | 
 | 71.8 µM | 57.5 µM | 10.1 µM | 52.6 µM | Fc1cccc(COc2ccc(Nc3ncnc4cc(N5CCOCC5)c(F)cc34)cc2Cl)c1 | 
 |  |  |  |  | COc1cc2ncnc(Nc3ccc(F)c(Cl)c3)c2cc1OCCCN1CCOCC1 [GEFITINIB] | Activity (A549 [21]): 7.93%; Activity (A549 [22]): 5.95%; Activity (A549 [23]): 7.86%; Activity (A549 [24]): 0.95%; Activity (A549 [25]): 76.94%; viability at 20 µM (A549 [26]): 83.3%; Activity (A549 [27]): 16.98%
 | > 100 µM | > 100 µM | 85.6 µM | > 100 µM | Fc1ccc(Nc2ncnc3cc(N4CCOCC4)c(F)cc23)cc1Cl | 
 | > 100 µM | > 100 µM | > 100 µM | > 100 µM | COCCN1CCN(c2cc3ncnc(Nc4ccc(OCc5cccc(F)c5)c(Cl)c4)c3cc2F)CC1 | 
 | > 100 µM | > 100 µM | 49.2 µM | > 100 µM | C/C=C/c1ccc(Nc2ncnc3cc(N4CCN(CCOC)CC4)c(F)cc23)cc1 | 
 | > 100 µM | > 100 µM | > 100 µM | > 100 µM | C#Cc1cccc(Nc2ncnc3cc(N4CCOCC4)c(F)cc23)c1 | 
 | > 100 µM | > 100 µM | 64 µM | > 100 µM | C/C=C/c1ccc(Nc2ncnc3cc(N4CCOCC4)c(F)cc23)cc1 | 
 | 19.2 µM | 19 µM | 12.8 µM | 68.1 µM | C#Cc1cccc(Nc2ncnc3cc(N4CCN(CCOC)CC4)c(F)cc23)c1 | 
< 20% |  |  |  |  | C#Cc1cccc(Nc2ncnc3cc(N4CCN(CCN(CC)CC)CC4)c(F)cc23)c1 | 
> 20% |  |  |  |  | CCN(CC)CCN1CCN(c2cc3ncnc(Nc4ccc(OCc5cccc(F)c5)c(Cl)c4)c3cc2F)CC1 | 

SMILES | inhibition [1] | IC50 (A549 [16]) | IC50 (SW480) | IC50 (A-431) | IC50 (NCI-H1975) | further results
Fc1ccc(Nc2ncnc3cc(N4CCNCC4)c(F)cc23)cc1Cl | < 20% |  |  |  |  | 
C/C=C/c1ccc(Nc2ncnc3cc(N4CCNCC4)c(F)cc23)cc1 | < 20% |  |  |  |  | 
C#Cc1cccc(Nc2ncnc3cc(N4CCNCC4)c(F)cc23)c1 | < 20% |  |  |  |  | 
